We go through nine compounds from patent publication US9566312B2, “Cyclic peptides and use as medicines” (priority 2012, dated 2017).

The target of one assay is cyclophilin A (CypA) (Homo sapiens (Human), UniProt P62937). The assay can be described thus: Inhibitor binding to cyclophilin proteins by SPR, CypA. Details: unit not given here. As to conditions: 1:1 binding model. For orientation: In SPR one partner is held on a chip, and binding of the other changes the refractive index at the surface.
Sequence of cyclophilin A (CypA) (P62937 whole entry): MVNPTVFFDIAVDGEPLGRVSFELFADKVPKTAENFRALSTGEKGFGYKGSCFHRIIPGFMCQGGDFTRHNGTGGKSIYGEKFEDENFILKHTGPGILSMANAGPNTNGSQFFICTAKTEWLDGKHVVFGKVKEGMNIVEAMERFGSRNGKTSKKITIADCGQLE
In another assay the target is cyclophilin B (CypB) (Homo sapiens (Human), UniProt P23284). The assay can be described thus: Inhibitor binding to cyclophilin proteins by SPR, CypB. Details: unit not given here. Particulars: 1:1 binding model. On the procedure:
(§1) Method 1: Measuring Inhibitor Binding to Cyclophilin Proteins
(§2) Binding of inhibitors to expressed cyclophilins was determined using surface plasmon resonance (SPR) experiments. Briefly, avi-tagged cyclophilin proteins with mono-biotinylation were immobilized onto a Biotin CAPture chip (GE Healthcare, cat. #28920234). SPR experiments were carried out on an upgraded Biacore T200 system using a running buffer containing the inhibitor, 10 mM HEPES, pH 7.4, 150 mM NaCl, 0.05% P20, and 3% DMSO. Single-cycle kinetics measurements were used to study the interactions between cyclophilin inhibitors and different cyclophlins. Accordingly, compound at various concentrations was injected to the flow cells with a contact time of 1 min each at a flow rate of 50 μL/min. The final dissociation phase lasts for 10 min following the sample injection. Data was analyzed using Biacore T200 Evaluation Software Version 1.0 and a 1:1 binding model was applied to fit the data to obtain kon, koff, and KD.

A further assay has as its target CypF (Homo sapiens (Human), UniProt P30405). The assay can be described thus: Inhibitor binding to cyclophilin proteins by SPR, CypF. Particulars: 1:1 binding model. On the procedure:
as §1, §2

For assay [1], the system named is genotype 1b subgenomic HCV replicon in Huh7.5 cells. It counts as cell-based, hepatitis C virus. Particulars: read-out: RPLN-1b IC50. On the procedure:
Method 2: Measuring Inhibitory Effects in a HCV Replicon System
Susceptibility to compounds was analyzed in Huh7.5 cells containing genotype 1a or 1b subgenomic HCV replicons co-expressing a luciferase reporter gene. The original replicons, pFK389lucubineo_3_3′_ET and pH/SG-Neo(L+I), were licensed from ReBlicon GmbH (Germany) and Apath LLC (Saint Louis, Mo.), respectively. The firefly reporter gen was replaced by renilla luciferase reporter gene using standard molecular biology techniques as follows.
Generation of genotype 1b subgenomic replicon: The renilla […]-neomycin phosphotransferase cassette was amplified from pF9 cytomegalovirus (CMV) hRluc-Neo Flexi(R) (Promega) by PCR using Accuprime super mix II (Invitrogen) and a primer set of Ascl hRlucNeo Fwd and NotI hRluc Rev. These two primers have the following sequences and introduce restriction sites for subsequent cloning: Ascl hRlucNeo Fwd, 5 […] 3(Ascl site underlined) (SEQ. ID No. 1), and NotI hRluc Rev, 5[…] 3(NotI site underlined) (SEQ ID No. 2). The amplification product was subcloned into pCR2.1-TOPO (Invitrogen). The resulting plasmid was digested with Ascl and NotI, and the excised fragment (hRluc-Neo) was ligated with the Roche Quick Ligation Kit (Roche) into pFK1389lucubineo_3_3′_ET digested with the same enzymes.
The assay medium for both, luciferase reporter HCV replicon and cytotoxicity assays contains phenol red-free DMEM and lacks G418. […] Luciferase activity of compound treated cells is measured relative to DMSO treated cells after 72 h incubation using Renilla-Glo™ Luciferase Assay (Promega). Cytotoxicity (CC50) is analyzed using Cell Titer-Glo™ (Promega).

Assay [2] has as its system peripheral blood mononuclear cells (PBMC). Put plainly: Anti-proliferative or immunosuppressive activity, BrdU incorporation in PHA-stimulated PBMC. Format: cell-based. As to conditions: PHA 3 μg/ml, 60 hour compound treatment; read-out: EMV PBMC IC50. On the procedure: Method 3: Measuring Anti-Proliferative or Immunosuppressive Activity
The potential anti-proliferative activity of compounds on T-cells was analyzed based on the amount of bromodesoxy uridine (BrdU) incorporated into DNA of fresh peripheral blood mononuclear cells (PBMC) using the BrdU ELISA kit (Roche). The assay is performed in 96-well plate format with 30,000 PBMCs seeded per well in X-VIVO 15 medium (Lonza). T-cell proliferation was stimulated by addition of 3 μg/ml phytohemagglutinin (PHA) in PBMCs obtained from two donors.

Setting [3] is: genotype 1b replicon, 72 h incubation.

Like-named read-outs stand apart in the source and are kept apart here. Starred links: 1 amine or outer side, 2 acyl side, 3 side chain; linkers in the order of their positions; H or OH if unused. Non-standard residues stand in square brackets, D forms with d. Residues, ends and D or L forms follow the SMILES beside them. X64 = COC[C@@H]1CN(C[C@@H](C)[C@@H](C(=O)[*:2])N(C)[*:1])CCO1; X69 = C[C@H](CCCN1CCC(C(N)=O)CC1)[C@@H](C(=O)[*:2])N(C)[*:1]; X83 = C[C@H](COC(=O)N1CCC(O)CC1)[C@@H](C(=O)[*:2])N(C)[*:1]; MeBmt = C/C=C/C[C@@H](C)[C@@H](O)[C@H](NC)C(=O)O; NMeVal(4-OMe,3S) = CN[C@H](C(=O)O)[C@H](C)COC; X86 = C[C@@H](CO)[C@@H](C(=O)[*:2])N(C)[*:1]; NMeL = CN[C@@H](CC(C)C)C(=O)O; NMeV = CN[C@H](C(=O)O)C(C)C; dNMeS = CN[C@H](CO)C(=O)O; dNMeA = CN[C@H](C)C(=O)O; Abu = CC[C@H](N)C(=O)O

Sequence of CypF (P30405 30-207): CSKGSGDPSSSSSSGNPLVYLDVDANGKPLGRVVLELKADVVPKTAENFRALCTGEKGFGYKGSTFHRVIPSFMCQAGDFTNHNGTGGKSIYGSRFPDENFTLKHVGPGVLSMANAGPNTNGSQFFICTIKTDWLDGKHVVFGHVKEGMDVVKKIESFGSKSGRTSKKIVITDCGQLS
Sequence of cyclophilin B (CypB) (P23284 34-216): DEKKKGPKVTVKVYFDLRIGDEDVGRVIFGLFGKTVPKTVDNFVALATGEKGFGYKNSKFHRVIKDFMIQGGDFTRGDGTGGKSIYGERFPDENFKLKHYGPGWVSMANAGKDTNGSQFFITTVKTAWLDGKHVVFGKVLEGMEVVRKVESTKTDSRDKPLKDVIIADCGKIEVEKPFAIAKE

Turning to `C/C=C/C[C@@H](C)[C@@H](O)[C@H]1C(=O)N[C@@H](CC)C(=O)N(C)[C@H](C)C(=O)N(C)[C@@H]([C@H](C)CN2CCO[C@H](COC)C2)C(=O)N[C@@H](C(C)C)C(=O)N(C)[C@@H](CC(C)C)C(=O)N[C@@H](C)C(=O)N[C@H](C)C(=O)N(C)[C@@H](CC(C)C)C(=O)N(C)[C@@H](CC(C)C)C(=O)N(C)[C@@H](C(C)C)C(=O)N1C` [Compound 2.5.34, 3-[D-Ala]-4-[(2S,3R)-4-((S)-2-(methoxymethyl)morpholino)-3-methyl-2-(methylamino)butanoyl]-cyclosporin] (cyclo(A[dA][NMeL][NMeL][NMeV][MeBmt][Abu][dNMeA][X64]V[NMeL])), the “CypA Kd” value at cyclophilin A (CypA) came out at 1.3. The “CypB Kd” value on cyclophilin B (CypB) is on record as 0.6. Besides, at CypF, the CypF Kd was 0.6 nM. The IC50 in assay [1] (setting [3]) came to 27 nM; in assay [2], 19000 nM.
The corresponding values for `C/C=C/C[C@@H](C)[C@@H](O)[C@H]1C(=O)N[C@@H](CC)C(=O)N(C)[C@H](C)C(=O)N(C)[C@@H]([C@H](C)CCCN2CCC(C(N)=O)CC2)C(=O)N[C@@H](C(C)C)C(=O)N(C)[C@@H](CC(C)C)C(=O)N[C@@H](C)C(=O)N[C@H](C)C(=O)N(C)[C@@H](CC(C)C)C(=O)N(C)[C@@H](CC(C)C)C(=O)N(C)[C@@H](C(C)C)C(=O)N1C` [Compound 2.19.2, 3-[D-Ala]-4-[(2S,3R)-6-(4-carbamoylpiperidin-1-yl)-3-methyl-2-(methylamino)hexanoyl]-cyclosporin] (cyclo(A[dA][NMeL][NMeL][NMeV][MeBmt][Abu][dNMeA][X69]V[NMeL])) are 0.9, 0.6, 0.5 nM, 2700 nM and 32300 nM.
Regarding `C/C=C/C[C@@H](C)[C@@H](O)[C@H]1C(=O)N[C@@H](CC)C(=O)N(C)[C@H](C)C(=O)N(C)[C@@H]([C@H](C)COC(=O)N(C)C2CCN(C)CC2)C(=O)N[C@@H](C(C)C)C(=O)N(C)[C@@H](CC(C)C)C(=O)N[C@@H](C)C(=O)N[C@H](C)C(=O)N(C)[C@@H](CC(C)C)C(=O)N(C)[C@@H](CC(C)C)C(=O)N(C)[C@@H](C(C)C)C(=O)N1C` [Compound 2.5.32, 3-[D-Ala]-4-[(2S,3S)-3-methyl-4-((methyl(1-methylpiperidin-4-yl)carbamoyl)oxy)-2-(methylamino)butanoyl]-cyclosporin], on cyclophilin A (CypA), the “CypA Kd” value is reported as 0.7. In addition, the “CypB Kd” value on cyclophilin B (CypB) is 0.5. In addition, the CypF Kd at CypF was 0.4 nM. Moreover, the figures for the IC50 in assay [1] (setting [3]) and in assay [2] were 150 nM and 9500 nM, respectively.
In the same order, the values of `C/C=C/C[C@@H](C)[C@@H](O)[C@H]1C(=O)N[C@@H](CC)C(=O)N(C)[C@H](CCCNC)C(=O)N(C)[C@@H]([C@H](C)COC)C(=O)N[C@@H](C(C)C)C(=O)N(C)[C@@H](CC(C)C)C(=O)N[C@@H](C)C(=O)N[C@H](C)C(=O)N(C)[C@@H](CC(C)C)C(=O)N(C)[C@@H](CC(C)C)C(=O)N(C)[C@@H](C(C)C)C(=O)N1C` (stereo in doubt) [Compound 3.2.1, 3-[(R)-2,5-bis(methylamino)pentanoyl]-4-[(2S,3S)-4-methoxy-3-methyl-2-(methylamino)butanoyl]-cyclosporin] are 6.3, 3.0, 3.4 nM, 4800 nM and 34900 nM.
Regarding `CCCC[C@@H](C)[C@@H](O)[C@H]1C(=O)N[C@@H](CC)C(=O)N(C)[C@H](C)C(=O)N(C)[C@@H]([C@@H](C)CN2CCO[C@H](COC)C2)C(=O)N[C@@H](C(C)C)C(=O)N(C)[C@@H](CC(C)C)C(=O)N[C@@H](C)C(=O)N[C@H](C)C(=O)N(C)[C@@H](CC(C)C)C(=O)N(C)[C@@H](CC(C)C)C(=O)N(C)[C@@H](C(C)C)C(=O)N1C` [Compound 2.17.12, 1-dihydro-3-[D-Ala]-4-[(2S,3S)-4-((S)-2-(methoxymethyl)morpholino)-3-methyl-2-(methylamino)butanoyl]-cyclosporin], the “CypA Kd” value on cyclophilin A (CypA) amounted to 1.7. Further, at cyclophilin B (CypB), the “CypB Kd” value turned out to be 0.7. Further, at CypF, the CypF Kd was 0.8 nM. In addition, the IC50 in assay [1] (setting [3]) came out at 75 nM.
For `C/C=C/C[C@@H](C)[C@@H](O)[C@H]1C(=O)N[C@@H](CC)C(=O)N(C)[C@H](CO)C(=O)N(C)[C@@H]([C@H](C)COC)C(=O)N[C@@H](C(C)C)C(=O)N(C)[C@@H](CC(C)C)C(=O)N[C@@H](C)C(=O)N[C@H](C)C(=O)N(C)[C@@H](CC(C)C)C(=O)N(C)[C@@H](CC(C)C)C(=O)N(C)[C@@H](C(C)C)C(=O)N1C` [Compound 3.2.3, 3-[D-ser]-4-[(2S,3S)-4-methoxy-3-methyl-2-(methylamino)butanoyl]-cyclosporin] (cyclo(A[dA][NMeL][NMeL][NMeV][MeBmt][Abu][dNMeS][NMeVal(4-OMe,3S)]V[NMeL])), the “CypA Kd” value on cyclophilin A (CypA) came out at 15. In addition, the “CypB Kd” value on cyclophilin B (CypB) is recorded as 7. The CypF Kd on CypF is 7 nM. Besides, the values for the IC50 in assay [1] and in assay [2] were 330 nM and 8900 nM, respectively.
As to `CCCC[C@@H](C)[C@@H](O)[C@H]1C(=O)N[C@@H](CC)C(=O)N(C)[C@H](C)C(=O)N(C)[C@@H]([C@H](C)COCCN2CCOCC2)C(=O)N[C@@H](C(C)C)C(=O)N(C)[C@@H](CC(C)C)C(=O)N[C@@H](C)C(=O)N[C@H](C)C(=O)N(C)[C@@H](CC(C)C)C(=O)N(C)[C@@H](CC(C)C)C(=O)N(C)[C@@H](C(C)C)C(=O)N1C` [Compound 2.8.10, 1-dihydro-3-[D-Ala]-4-[(2S,3S)-3-methyl-2-(methylamino)-4-(2-morpholinoethoxy)butanoyl]-cyclosporin], at cyclophilin A (CypA), the “CypA Kd” value is given as 2.1. The “CypB Kd” value at cyclophilin B (CypB) amounted to 1.2. For the same compound, on CypF, the CypF Kd was determined as 1.1 nM. In addition, the values for the IC50 in assay [1] (setting [3]) and in assay [2] were 110 nM and 14500 nM, respectively.
For the compound `C/C=C/C[C@@H](C)[C@@H](O)[C@H]1C(=O)N[C@@H](CC)C(=O)N(C)[C@H](C)C(=O)N(C)[C@@H]([C@@H](C)CO)C(=O)N[C@@H](C(C)C)C(=O)N(C)[C@@H](CC(C)C)C(=O)N[C@@H](C)C(=O)N[C@H](C)C(=O)N(C)[C@@H](CC(C)C)C(=O)N(C)[C@@H](CC(C)C)C(=O)N(C)[C@@H](C(C)C)C(=O)N1C` [Compound 2.17.13, 3-[D-Ala]-4-[(2S,3R)-4-hydroxy-3-methyl-2-(methylamino)butanoyl]-cyclosporin] (cyclo(A[dA][NMeL][NMeL][NMeV][MeBmt][Abu][dNMeA][X86]V[NMeL])), the IC50 in assay [1] (setting [3]) turned out to be 85 nM.
For `C/C=C/C[C@@H](C)[C@@H](O)[C@H]1C(=O)N[C@@H](CC)C(=O)N(C)[C@H](C)C(=O)N(C)[C@@H]([C@H](C)COC(=O)N2CCC(O)CC2)C(=O)N[C@@H](C(C)C)C(=O)N(C)[C@@H](CC(C)C)C(=O)N[C@@H](C)C(=O)N[C@H](C)C(=O)N(C)[C@@H](CC(C)C)C(=O)N(C)[C@@H](CC(C)C)C(=O)N(C)[C@@H](C(C)C)C(=O)N1C` [Compound 2.5.8, 3-[D-Ala]-4-[(2S,3S)-4-((4-hydroxypiperidine-1-carbonyl)oxy)-3-methyl-2-(methylamino)butanoyl]-cyclosporin] (cyclo(A[dA][NMeL][NMeL][NMeV][MeBmt][Abu][dNMeA][X83]V[NMeL])), the “CypA Kd” value on cyclophilin A (CypA) is 1.7. For the same compound, the “CypB Kd” value at cyclophilin B (CypB) is reported as 1.0. This compound also returned a CypF Kd on CypF of 1 nM.

As a reminder, the IC50 is the concentration at which inhibition is half-maximal.
